Measurements from ChEMBL document CHEMBL4359931, “Synthesis, biological evaluation and molecular docking studies of new amides of 4-bromothiocolchicine as anticancer agents” (Bioorg Med Chem, 2019).
Activity calls are given as the source filed them. The rule behind the calls is not given here.

Legend:
[1] = organism: Homo sapiens; experiment: Induction of apoptosis in human ALL5 cells assessed as increase in 85 kDa PARP expression at 43 uM incubated for 48 hrs by immunoblot analysis; format: functional, cell-based
[2] = test system: MCF7; experiment: Cell cycle arrest in human MCF7 cells assessed as accumulation in subG1 phase at 5 times of antiproliferative IC50 incubated for 72 hrs by propidium iodide based flow cytometry (reference value: 3.59 %); format: functional
[3] = Cell cycle arrest in human ALL5 cells assessed as accumulation in subG1 phase at 5 times of antiproliferative IC50 incubated for 24 hrs by propidium iodide based flow cytometry (reference value: 10.5 %); format: functional
[4] = Antiproliferative activity against human ALL5 cells assessed as reduction in cell viability incubated for 120 hrs by MTT assay; format: functional, cell-based; conditions: ALL5, 120 h
[5] = test system: MCF7; experiment: Cell cycle arrest in human MCF7 cells assessed as accumulation in subG1 phase at 5 times of antiproliferative IC50 incubated for 24 hrs by propidium iodide based flow cytometry (reference value: 7.79 %); format: functional
[6] = Cell cycle arrest in human ALL5 cells assessed as accumulation in G2 phase at 5 times of antiproliferative IC50 incubated for 24 hrs by propidium iodide based flow cytometry (reference value: 10.6 %); format: functional
[7] = organism: Homo sapiens; experiment: Induction of cell cycle arrest in human ALL5 cells assessed as increase in 4 N DNA at 5 times of antiproliferative IC50 incubated for 48 hrs by propidium iodide based flow cytometry; format: functional
[8] = Cell cycle arrest in human ALL5 cells assessed as accumulation in subG1 phase at 5 times of antiproliferative IC50 incubated for 48 hrs by propidium iodide based flow cytometry (reference value: 11 %); format: functional
[9] = Cell cycle arrest in human ALL5 cells assessed as accumulation in S phase at 5 times of antiproliferative IC50 incubated for 24 hrs by propidium iodide based flow cytometry (reference value: […]); format: functional
[10] = Cell cycle arrest in human ALL5 cells assessed as accumulation in G1 phase at 5 times of antiproliferative IC50 incubated for 72 hrs by propidium iodide based flow cytometry (reference value: 59.7 %); format: functional
[11] = organism: Homo sapiens; experiment: Induction of cell cycle arrest in human ALL5 cells assessed as increase in 4 N DNA at 5 times of antiproliferative IC50 incubated for 24 hrs by propidium iodide based flow cytometry; format: functional
[12] = organism: Homo sapiens; experiment: Induction of cell death in human ALL5 cells assessed as decrease in 4 N DNA at 5 times of antiproliferative IC50 incubated for 72 hrs by propidium iodide based flow cytometry; format: functional
[13] = Cell cycle arrest in human ALL5 cells assessed as accumulation in S phase at 5 times of antiproliferative IC50 incubated for 72 hrs by propidium iodide based flow cytometry (reference value: 13.5 %); format: functional
[14] = test system: MCF7; experiment: Cell cycle arrest in human MCF7 cells assessed as accumulation in G1 phase at 5 times of antiproliferative IC50 incubated for 48 hrs by propidium iodide based flow cytometry (reference value: 40.8 %); format: functional
[15] = test system: MCF7; experiment: Cell cycle arrest in human MCF7 cells assessed as accumulation in G1 phase at 5 times of antiproliferative IC50 incubated for 24 hrs by propidium iodide based flow cytometry (reference value: 49.9 %); format: functional
[16] = Cell cycle arrest in human ALL5 cells assessed as accumulation in G2 phase at 5 times of antiproliferative IC50 incubated for 72 hrs by propidium iodide based flow cytometry (reference value: 11.3 %); format: functional
[17] = Cell cycle arrest in human ALL5 cells assessed as accumulation in G1 phase at 5 times of antiproliferative IC50 incubated for 48 hrs by propidium iodide based flow cytometry (reference value: 67.4 %); format: functional
[18] = Cell cycle arrest in human ALL5 cells assessed as accumulation in G2 phase at 5 times of antiproliferative IC50 incubated for 48 hrs by propidium iodide based flow cytometry (reference value: 11.2 %); format: functional
[19] = test system: MCF7; experiment: Cell cycle arrest in human MCF7 cells assessed as accumulation in S phase at 5 times of antiproliferative IC50 incubated for 48 hrs by propidium iodide based flow cytometry (reference value: 34 %); format: functional
[20] = test system: MCF7; experiment: Cell cycle arrest in human MCF7 cells assessed as accumulation in G2 phase at 5 times of antiproliferative IC50 incubated for 72 hrs by propidium iodide based flow cytometry (reference value: 18.6 %); format: functional
[21] = test system: MCF7; experiment: Cell cycle arrest in human MCF7 cells assessed as accumulation in G1 phase at 5 times of antiproliferative IC50 incubated for 72 hrs by propidium iodide based flow cytometry (reference value: 58 %); format: functional
[22] = test system: MCF7; experiment: Cell cycle arrest in human MCF7 cells assessed as accumulation in subG1 phase at 5 times of antiproliferative IC50 incubated for 48 hrs by propidium iodide based flow cytometry (reference value: 9.19 %); format: functional
[23] = test system: MCF7; experiment: Cell cycle arrest in human MCF7 cells assessed as accumulation in G2 phase at 5 times of antiproliferative IC50 incubated for 24 hrs by propidium iodide based flow cytometry (reference value: 22.4 %); format: functional
[24] = Cell cycle arrest in human ALL5 cells assessed as accumulation in S phase at 5 times of antiproliferative IC50 incubated for 48 hrs by propidium iodide based flow cytometry (reference value: 10.3 %); format: functional
[25] = Cell cycle arrest in human ALL5 cells assessed as accumulation in G1 phase at 5 times of antiproliferative IC50 incubated for 24 hrs by propidium iodide based flow cytometry (reference value: 68.1 %); format: functional
[26] = test system: MCF7; experiment: Cell cycle arrest in human MCF7 cells assessed as accumulation in S phase at 5 times of antiproliferative IC50 incubated for 24 hrs by propidium iodide based flow cytometry (reference value: 19.9 %); format: functional
[27] = test system: MCF7; experiment: Cell cycle arrest in human MCF7 cells assessed as accumulation in S phase at 5 times of antiproliferative IC50 incubated for 72 hrs by propidium iodide based flow cytometry (reference value: 19.8 %); format: functional
[28] = organism: Homo sapiens; experiment: Induction of apoptosis in human ALL5 cells assessed as reduction in 116 kDa PARP expression at 43 uM incubated for 24 and 48 hrs by immunoblot analysis; format: functional, cell-based
[29] = Cell cycle arrest in human ALL5 cells assessed as accumulation in subG1 phase at 5 times of antiproliferative IC50 incubated for 72 hrs by propidium iodide based flow cytometry (reference value: 15.5 %); format: functional
[30] = test system: MCF7; experiment: Cell cycle arrest in human MCF7 cells assessed as accumulation in G2 phase at 5 times of antiproliferative IC50 incubated for 48 hrs by propidium iodide based flow cytometry (reference value: 16 %); format: functional

COc1cc2c(c(OC)c1OC)-c1ccc(OC)c(=O)cc1[C@@H](NC(C)=O)CC2 [COLCHICINE]
Activity [1]: Active | Activity [2]: 12.6% | Activity [3]: 19.7% | IC50 [4]: 8.6 nM | Activity [5]: 5.51% | Activity [6]: 14.4% | Activity [7]: Active | Activity [8]: 27.4% | Activity [9]: 12% | Activity [10]: 21.7% | Activity [11]: Active | Activity [12]: Active | Activity [13]: 17.1% | Activity [14]: 14.5% | Activity [15]: 9.33% | Activity [16]: 9.05% | Activity [17]: 33.2% | Activity [18]: 22.3% | Activity [19]: 7.86% | Activity [20]: 64% | Activity [21]: 16% | Activity [22]: 9.33% | Activity [23]: 72.2% | Activity [24]: 17.1% | Activity [25]: 54% | Activity [26]: 13% | Activity [27]: 7.4% | Activity [28]: Active | Activity [29]: 52.1% | Activity [30]: 68.3%
